From US20020006420A1, “USE OF A 2-AMINO-ALKANE POLYOL AS AGENT FOR TREATING SKIN AGEING SIGNS” (priority 1997, published 2002)

Tests used:
Type in all cases: cell-based
HaCat cells [1] = assay: Proliferative effect on keratinocytes in culture (cell counting, Coulter Counter); settings: for increase in the number of cells relative to the control: counting 5 days after addition
Method: HaCat cells (Boukamp et al., J. Cell Biol. Vol. 106, March 1988, 761-771) are cultured in DMEM medium (company Gibco) containing amino acids (mixture of nonessential amino acids) at the concentration of 0.1 mM, penicillin and streptomycin at the respective concentrations of 50 International Units per milliliter and 50 μg/ml, glutamine at the concentration of 2 mM, sodium pyruvate at the concentration of 1 mM and foetal calf serum at 10%. These cells were inoculated at the density of 10,000 cells per well into the 24 wells of multiwell-type plates (Costar, France).
24 hours after inoculation, the cells are brought into contact with various compounds tested in a KBM medium (company Clonetics) containing 0.15 mM of calcium ion, insulin at 5 μg/ml, hydrocortisone at 0.5 μg/ml and lipid-free bovine serum albumin at 1 μg/ml.
Cell counting is carried out 5 days after the addition of the various ceramides using a cell counter of the Coulter Counter type.
The various compounds are tested at 0.5 nM, 5 nM, 50 nM and 500 nM.
The results, expressed as a percentage, represent the increase in the number of cells relative to the control, that is to say relative to a culture carried out under the same conditions in the absence of sphinganine.

HaCat cells [2] = assay: Effect on the cell cycle (BrdU incorporation, S phase); settings: 50 nM
Method: (§1) HaCat cells are cultured as above.
(§2) They are then inoculated at the density of 20,000 cells per well into the 24 wells of multiwell-type plates (Costar, France).
24 hours after inoculation, the cells are brought into contact with various compounds tested in a KBM medium (company Clonetics) containing insulin at 5 μg/ml and hydrocortisone at 0.5 μg/ml, and 5-bromo-2′-deoxyuridine (BrdU) at 1 μM.
[…] This is carried out with the aid of a “BrdU fast” kit sold by the company Boehringer and according to the supplier's instructions.
Compounds A and B of the preceding example were tested at the concentration of 50 nM.
The results, expressed as a percentage, represent the increase in the number of cells which entered the S phase relative to the control, that is to say relative to a culture carried out under the same conditions in the absence of alkanediol compounds.

HaCat cells [3] = assay: Effect on cell viability (mitochondrial respiration, XTT kit); settings: 50 nM
Method: as §1, §2
(§3) 24 hours after inoculation, the cells are brought into contact with various compounds tested in a KBM medium (company Clonetics) containing insulin at 5 μg/ml and hydrocortisone at 0.5 μg/ml.
(§4) The cell viability is evaluated 48 hours later by the measurement of mitochondrial respiration. This is carried out with the aid of an XTT kit sold by the company Boehringer and according to the supplier's instructions.
Compounds A and B of the preceding example were tested at the concentration of 50 nM, as well as a derivative based on sphingenine: N-palmitoylsphingenine from Sigma (C16H).
The results, expressed as a percentage, represent the increase in the number of cells relative to the control, that is to say relative to a culture carried out under the same conditions in the absence of alkanediol compounds.

HaCat cells [4] = assay: Cell viability in the presence of N-acetylsphingenine (XTT kit); settings: 10 μM
Method: HaCat cells are cultured as in Example 2.
as §3
The cells are cultured in the presence of the 2-amino-1,3-octadecanediol to be tested until the cell viability is evaluated.
The N-acteylsphingenine at the concentration of 10 μM is added to the culture medium over 2 hours at the beginning of the experiment.
as §4
The experiment was carried out with the following compounds at the concentration of 50 nM:
in comparison with the culture medium without alkanediol and without N-acetylsphingenine (A), and with a medium containing only N-acetylsphingenine (B).
The results, expressed as a percentage, represent the number of cells relative to the control (A), that is to say relative to a culture carried out under the same conditions in the absence of alkanediol compounds and of N-acetysphingenine.

Compound | proliferative activity on keratinocytes in culture (in words) (HaCat cells [1]) | increase in the number of cells relative to the control (HaCat cells [1]; 0.5 nM) [%] | increase in the number of cells relative to the control (HaCat cells [1]; 5 nM) [%] | increase in the number of cells relative to the control (HaCat cells [1]; 50 nM) [%] | increase in the number of cells relative to the control (HaCat cells [1]; 500 nM) [%] | effect on number of keratinocytes which entered the S phase (in words) (HaCat cells [2]) | increase in the number of cells which entered the S phase relative to the control (HaCat cells [2]; 72 hours) [%] | increase in the number of cells which entered the S phase relative to the control (HaCat cells [2]; 96 hours) [%] | effect on viability of keratinocytes in culture (in words) (HaCat cells [3]) | cell viability: increase in the number of cells relative to the control (HaCat cells [3]; XTT 48 hours later) | effect of N-acetylsphingenine on cell viability (in words) (HaCat cells [4])
CCCCCCCCCCCCCCCC(O)C(N)CO (single isomer, unassigned) [A, 2-amino-1,3-octadecanediol] | proliferative activity | 7 | 15 | 17 | 30 | increase the number of keratinocytes which entered the S phase | 36 | 41 | increase the viability | +17% | –
N-acetylsphingenine [B] | – | – | – | – | – | – | – | – | – | – | decrease in cell viability
CCCCCCCCCCCCC/C=C/[C@@H](O)[C@H](CO)NC(=O)CCCCCCCCCCCCCCC [Compound C16H, N-palmitoylsphingenine, reference compound] | – | – | – | – | – | – | – | – | cytotoxic effect | – | –
